These results are taken from patent US4444758A, “Nonapeptide for treating addictive drug withdrawal conditions” (priority 1981, dated 1984).

The test system of one data set is morphine-dependent mouse. Kind of data set: Inhibition of the naloxone-triggered withdrawal leaps of the morphine-dependent mouse. The class given is in vivo. The settings on record: 30 mg . kg^-1 s.c., positive control. As for the experimental part:
In order to produce the dependence a compressed tablet, which contained 75 mg of morphine (base) and which progressively dissolved with continuous liberation of the morphine, was implanted under the dorsal skin of male mice (weight about 22 g). On the third day after the implantation the morphine antagonist naloxone in a dosage of 0.1 mg/kg was administered subcutaneously to the animals in order to trigger off the withdrawal leaps.
After the injection, the leaps of each individual animal were counted for 20 minutes. The group median value was calculated from the total leaps of 8 animals, which formed a group. As the positive control the animals of one group received 30 mg/kg of morphine subcutaneously 30 minutes before administration of the antagonist. Two to four groups received 10 ml/kg of physiological sodium chloride solution (negative control) 2 hours before the naloxone administration intravenously. The remaining groups received DSIP in various dosages (0.01, 0.015, 0.03, 0.06 and 0.1 mg/kg, intravenously and 0.03, 0.1 and 0.3 mg/kg, subcutaneously) 2 hours before the naloxone administration. The dosage median values and, respectively, control median values were calculated from all individual values per dosage and, respectively, the positive and negative controls.

Data set [1] deals with alcoholic or methadone- or heroin-dependent patients. Particulars: human, in vivo.
Procedure: Of the 25 alcoholic patients 8 were on admission already in delirium tremens to a medium to severe degrees. After the first subjective and objective withdrawal signs manifested themselves the patients received up to 4 intravenous infusions of in each case 0.0214 mg/kg of DSIP daily. For this purpose, the substance was dissolved in physiological sodium chloride solution and infused in the course of 5 minutes.
The duration of treatment amounted to a maximum of 3 days.
Data set [2] deals with dogs. Kind of data set: 4-week intravenous toxicological study in dogs.
Procedure: (§1) Toxicological studies were carried out on 12 male and 12 female rats as well as on 3 male and 3 female dogs per dosage. For this purpose DSIP was dissolved in physiological sodium chloride solution and administered intravenously daily for 4 weeks in the dosages of 0.6, 1.8 and 6 mg/kg. At an interval of 2 weeks during these studies the hematological, hematochemical and the urine status were determined, and the electrocardiogram was recorded and analyzed
(§2) At the termination of the aforementioned studies all animals were painlessly killed and there followed the autopsy besides the removal of organ samples for histological investigations.
Data set [3] deals with rats. The experiment in a line: 4-week intravenous toxicological study in rats.
Procedure: as §1, §2
In data set [4] the test system is dogs. Particulars: dog, in vivo.
Procedure: as §1, §2
For data set [5], the system named is rats. The settings on record: rat, in vivo.
Procedure: as §1, §2
The mark [6] stands for this setting: maximum dosage (6 mg/kg i.v. daily for 4 weeks).

Where no end group is shown, it is not given here.

As for `CN1CC[C@]23c4c5ccc(O)c4O[C@H]2[C@@H](O)C=C[C@H]3[C@H]1C5` [Morphine, morphine], the “Leaps/animal (median)” value in the data set on morphine-dependent mouse (30 minutes before naloxone 0.1 mg/kg s.c., leaps counted for 20 minutes) is 43 Leaps/animal. In the data set on morphine-dependent mouse (30 minutes before naloxone), the “% of a negative control” value is 27%.

For the compound “WAGGDASGE [DSIP, Trp--Ala--Gly--Gly--Asp--Ala--Ser--Gly--Glu]”, in data set [1], the “Tolerance of DSIP: poor, number of patients” value was determined as 2 patients. Besides, the “Histological analysis of about 30 organs and of the injection sites” value in the data set on dogs [2] (i.v. daily for 4 weeks) and with rats [3] (i.v. daily for 4 weeks) was “not the slightest evidence of damage to organs” in each case. Also, the “Changes in the electrocardiogram” value in the data set with dogs [2] (setting [6]) and in the data set on rats [3] (setting [6]) was “no changes in the electrocardiogram” in each case. Besides, the “Hematological, hematochemical and urine values” in the data set on dogs [2] (setting [6]) and in the data set with rats [3] (setting [6]) was “within the physiological limits” each time. Moreover, the “Tolerance of the dosages (side effects)” value in the data set on dogs [4] and with rats [5] was “tolerated without any side effects” each time. Further, the “Local tolerance at the injection sites” value in the data set with dogs [4] (iv) and in the data set on rats [5] (iv) was “excellent” throughout.
